Laboratory results from patent EP2505659A1, “Methods for the identification of dioxygenase interacting molecules and for the purification of dioxygenase proteins” (CELLZOME AG, priority 2011, dated 2012).
Counter-ions that a name gives are not always drawn. Like-named read-outs stand apart in the source and are kept apart here.

Key:
Assay in all cases: Bead competition binding assay, immobilized compound A, K-562, HL-60 and Jurkat nuclear lysates
[1] = biological target: T1, P4HA1 (Homo sapiens, UniProt P13674); conditions: read-out: Fold change versus DMSO control, P4HA1, 100 µM free compound A
T1 construct: endogenous in cells
From the text: (§1) The proteins bound to the immobilized compound were eluted with detergent-containing buffer and separated on a SDS-polyacryamide gel. […] Table 4: Compound treatment and TMT-labeling of cell samples
(§2) Jurkat cells (ATCC number TIB-152) were either obtained from an external supplier (CIL SA, Mons, Belgium) or grown in one litre Spinner flasks (Integra Biosciences, #182101) in suspension in RPMI 1640 medium (Invitrogen, #21875-034) supplemented with 10% Fetal Bovine Serum (Invitrogen, #10270-106) at a density between 0.2 x 10^6 and 1.0 x 10^6 cells/ml. Cells were harvested by centrifugation, washed once with 1 x PBS buffer (Invitrogen, #14190-094) and cell pellets were frozen in liquid nitrogen and subsequently stored at -80°C.
(§3) Source of HL-60 cells: HL-60 cell line (DSMZ, Braunschweig, Germany; DSMZ number ACC3). K562 cells were also purchased from DSMZ (Braunschweig, Germany).
(§4) Extracts of nuclei were prepared according to the Dignam protocol (Dignam et al., 1983. Nucleic Acids Res. 11 (5):1475-89).
(§5) The TMT reagents are a set of multiplexed, amine-specific, stable isotope reagents that can label peptides on amino groups in up to six different biological samples enabling simultaneous identification and quantitation of peptides. The TMT reagents were used according to instructions provided by the manufacturer. The samples were resuspended in 10 µl 50 mM TEAB solution, pH 8.5 and 10 µl acetonitril were added. The TMT reagent was dissolved in acetonitrile to a final concentration of 24 mM and 10 µl of reagent solution were added to the sample. The labeling reaction was performed at room temperature for one hour on a horizontal shaker and stopped by adding 5 µl of 100 mM TEAB and 100 mM glycine in water. The labeled samples were then combined, dried in a vacuum centrifuge and resuspended in 60% 200mM TEAB / 40% acetonitril.
(§6) Table 5: Peptide elution off the LC system
(§7) Search criteria varied depending on which mass spectrometer was used for the analysis.

[2] = biological target: T2, C17ORF101 (Homo sapiens, UniProt Q6PK18); conditions: read-out: Fold change versus DMSO control, C17ORF101; 100 µM free compound A; HL-60 nuclear lysate
T2 construct: capturing and identification of dioxygenases from nuclear protein extracts; endogenous in cells
T2 sequence (Q6PK18 1-331 isoform Q6PK18-2): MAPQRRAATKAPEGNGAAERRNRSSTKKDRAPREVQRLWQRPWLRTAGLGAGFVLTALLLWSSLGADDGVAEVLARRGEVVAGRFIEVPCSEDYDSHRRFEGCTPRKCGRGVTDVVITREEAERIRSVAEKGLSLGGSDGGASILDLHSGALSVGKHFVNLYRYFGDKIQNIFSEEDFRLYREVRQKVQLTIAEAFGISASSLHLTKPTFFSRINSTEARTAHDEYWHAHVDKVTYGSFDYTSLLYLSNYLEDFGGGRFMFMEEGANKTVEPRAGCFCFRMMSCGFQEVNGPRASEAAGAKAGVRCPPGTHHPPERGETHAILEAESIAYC
From the text: as §1, §2, §3, §4, §5, §6, §7

[3] = biological target: T3, PLOD2 (Homo sapiens, UniProt O00469); conditions: 100 µM free compound A, read-out: Fold change versus DMSO control
T3 construct: capturing and identification of dioxygenases from nuclear lysates of three different cell lines; endogenous in cells; host or cells: K-562, HL-60 and Jurkat nuclear lysates
T3 sequence (O00469 26-737): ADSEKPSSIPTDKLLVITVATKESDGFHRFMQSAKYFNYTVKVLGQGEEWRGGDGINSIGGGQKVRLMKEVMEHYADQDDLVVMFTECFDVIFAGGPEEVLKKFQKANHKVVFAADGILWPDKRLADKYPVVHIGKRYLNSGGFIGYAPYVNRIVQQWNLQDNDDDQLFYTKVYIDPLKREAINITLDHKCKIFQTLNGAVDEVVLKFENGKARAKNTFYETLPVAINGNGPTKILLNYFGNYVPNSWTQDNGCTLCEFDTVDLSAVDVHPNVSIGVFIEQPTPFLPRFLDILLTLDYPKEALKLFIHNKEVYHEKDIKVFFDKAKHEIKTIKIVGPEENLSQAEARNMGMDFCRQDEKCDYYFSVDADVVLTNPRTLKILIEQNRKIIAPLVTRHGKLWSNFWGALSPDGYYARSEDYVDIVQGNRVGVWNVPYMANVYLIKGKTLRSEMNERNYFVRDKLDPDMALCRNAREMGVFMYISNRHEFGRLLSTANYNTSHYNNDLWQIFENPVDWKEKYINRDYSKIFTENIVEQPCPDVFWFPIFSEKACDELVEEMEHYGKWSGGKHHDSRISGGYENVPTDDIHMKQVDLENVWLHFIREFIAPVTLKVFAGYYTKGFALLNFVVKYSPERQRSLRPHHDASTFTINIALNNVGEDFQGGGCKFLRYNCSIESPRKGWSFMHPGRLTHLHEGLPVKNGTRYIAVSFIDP
From the text: (§8) K562 cells were also purchased from DSMZ (Braunschweig, Germany).
as §6
(§9) Seventeen different dioxygenases were identified.

[4] = biological target: T4, ALKBH7 (Homo sapiens, UniProt Q9BT30); conditions: 100 µM free compound A, read-out: Fold change versus DMSO control
T4 construct: capturing and identification of dioxygenases from nuclear lysates of three different cell lines; endogenous in cells; host or cells: K-562, HL-60 and Jurkat nuclear lysates
T4 sequence (Q9BT30 21-221): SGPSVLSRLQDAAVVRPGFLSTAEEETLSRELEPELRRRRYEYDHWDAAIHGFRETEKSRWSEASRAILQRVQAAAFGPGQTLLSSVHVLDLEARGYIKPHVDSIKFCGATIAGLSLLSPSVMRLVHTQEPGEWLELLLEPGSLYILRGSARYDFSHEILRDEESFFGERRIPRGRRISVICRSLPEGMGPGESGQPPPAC
From the text: as §8, §6, §9

[5] = biological target: T5, OGFOD1 (Homo sapiens, UniProt Q8N543); conditions: 100 µM free compound A, read-out: Fold change versus DMSO control
T5 construct: capturing and identification of dioxygenases from nuclear protein extracts; endogenous in cells
From the text: as §8, §6, §9

T5 sequence (Q8N543 whole entry): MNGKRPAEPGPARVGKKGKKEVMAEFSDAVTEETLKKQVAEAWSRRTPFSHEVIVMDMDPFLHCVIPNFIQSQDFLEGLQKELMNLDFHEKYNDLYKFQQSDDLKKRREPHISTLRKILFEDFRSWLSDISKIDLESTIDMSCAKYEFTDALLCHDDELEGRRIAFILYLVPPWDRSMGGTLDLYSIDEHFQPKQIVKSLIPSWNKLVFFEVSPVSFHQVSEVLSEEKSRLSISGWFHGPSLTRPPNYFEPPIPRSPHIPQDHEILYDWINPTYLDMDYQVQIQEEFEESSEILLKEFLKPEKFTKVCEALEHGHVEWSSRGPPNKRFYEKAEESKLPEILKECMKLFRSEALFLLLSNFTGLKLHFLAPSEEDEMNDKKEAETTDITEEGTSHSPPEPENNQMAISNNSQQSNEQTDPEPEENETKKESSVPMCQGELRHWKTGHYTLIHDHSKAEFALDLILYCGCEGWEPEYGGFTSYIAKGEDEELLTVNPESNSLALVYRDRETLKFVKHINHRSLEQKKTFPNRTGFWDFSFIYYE
T1 sequence (P13674 18-534): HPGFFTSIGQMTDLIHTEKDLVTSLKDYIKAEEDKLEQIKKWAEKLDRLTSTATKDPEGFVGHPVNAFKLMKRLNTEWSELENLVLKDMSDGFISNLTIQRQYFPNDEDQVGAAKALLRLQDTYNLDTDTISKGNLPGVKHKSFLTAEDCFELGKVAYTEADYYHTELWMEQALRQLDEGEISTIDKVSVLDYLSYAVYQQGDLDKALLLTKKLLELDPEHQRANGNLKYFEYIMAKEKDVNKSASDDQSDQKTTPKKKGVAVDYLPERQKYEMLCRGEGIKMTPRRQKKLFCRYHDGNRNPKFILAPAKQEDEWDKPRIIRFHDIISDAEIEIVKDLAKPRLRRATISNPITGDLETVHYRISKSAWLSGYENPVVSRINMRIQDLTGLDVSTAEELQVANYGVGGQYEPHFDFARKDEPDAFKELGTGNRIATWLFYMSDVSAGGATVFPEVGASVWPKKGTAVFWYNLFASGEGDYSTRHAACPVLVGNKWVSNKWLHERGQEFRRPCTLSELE
T1 sequence (P07237 18-508 partner): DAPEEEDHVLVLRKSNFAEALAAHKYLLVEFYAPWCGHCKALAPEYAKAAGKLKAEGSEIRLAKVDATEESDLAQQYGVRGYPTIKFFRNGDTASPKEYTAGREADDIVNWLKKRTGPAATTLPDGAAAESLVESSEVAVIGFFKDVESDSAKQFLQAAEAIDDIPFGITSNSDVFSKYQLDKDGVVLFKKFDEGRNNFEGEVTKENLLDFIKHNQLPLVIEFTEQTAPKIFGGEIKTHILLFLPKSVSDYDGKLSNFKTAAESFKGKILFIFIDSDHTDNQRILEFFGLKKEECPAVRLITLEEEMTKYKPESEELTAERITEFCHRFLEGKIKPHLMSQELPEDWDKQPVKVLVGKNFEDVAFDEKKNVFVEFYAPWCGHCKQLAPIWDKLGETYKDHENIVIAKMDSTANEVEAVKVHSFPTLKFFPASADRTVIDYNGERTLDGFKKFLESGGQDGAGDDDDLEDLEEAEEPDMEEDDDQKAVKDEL

Work on `O=C(O)CNC(=O)C1C(=O)OC2(CCNCC2)OC1=O` [compound A, 2-(2,4-dioxo-1,5-dioxa-9-azaspiro[5.5]undecane-3-carboxamido)acetic acid hydrochloride] yielded a remaining binding at 100 µM ([1]; HL-60 nuclear lysate) of 25%, a remaining binding at 100 µM ([1]; K-562 nuclear lysate) of 31% and a remaining binding at 100 µM [2] of 67%. The remaining binding at 100 µM ([3]; HL-60 nuclear lysate) was 86%, the remaining binding at 100 µM ([3]; Jurkat nuclear lysate) was 109% and the remaining binding at 100 µM ([3]; K-562 nuclear lysate) was 54%. It also gave a remaining binding at 100 µM ([4]; HL-60 nuclear lysate) of 82%, a remaining binding at 100 µM ([4]; Jurkat nuclear lysate) of 55% and a remaining binding at 100 µM ([4]; K-562 nuclear lysate) of 54%. It also gave a remaining binding at 100 µM ([5]; HL-60 nuclear lysate) of 50%, a remaining binding at 100 µM ([5]; Jurkat nuclear lysate) of 30% and a remaining binding at 100 µM ([5]; K-562 nuclear lysate) of 19%.
